These results are taken from patent US20230265116A1, “DEGRADATION OF (EGFR) BY CONJUGATION OF EGFR INHIBITORS WITH E3 LIGASE LIGAND AND METHODS OF USE” (BEIGENE, LTD., priority 2020, published 2023).

Broadly, the DC50 is the concentration at which degradation of the target reaches its halfway point. By Dmax is commonly meant the largest share of the target that was removed.

Molecules are shown by their SMILES.

In test [1] the target is T1, EGFR L858R/T790M/C797S (BaF3-LTC cells) (Homo sapiens, UniProt P00533, C797S/L858R/T790M).
T1 construct: expressed in transfected cells; host or cells: BaF3
In words: EGFR degradation HTRF assay, BaF3-LTC cells. In kind it is cell-based. The following applies: BaF3-LTC cells; for DC50: EGFR degradation, IC50 (DC50) from curve fit, read-out: DC50(nM) BaF3-LTC; for Dmax: read-out: Dmax (%) BaF3-LTC. An outline of the steps: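 EGFR remaining after a 16 h, 37 °C exposure (8 doses, 5-fold steps from 10 uM final, 0.2% DMSO) was quantified by HTRF antibodies in cell lysate. Percent inhibition relative to DMSO control was fitted by four-parameter logistic to give DC50; Dmax denotes maximal degradation.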

For test [2], the system named is EGFR Del19/T790M/C797S (H1975-clone #28). In words: EGFR degradation HTRF assay, H1975-clone #28 DTC cells. The class given is cell-based. The note with it: H1975 # 28 DTC cells; for DC50: EGFR degradation, IC50 (DC50) from curve fit, read-out: DC50(nM) H1975 # 28 DTC; for Dmax (%) H1975 # 28 DTC: maximum percentage of inhibition (degradation). An outline of the steps:
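Read-out is an HTRF EGFR signal (337 nm excitation, 665/620 nm) from lysates of mutant-EGFR H1975 clones in which only the exogenous EGFR survives knockout. Treatment ran 16h at 37° C. from 10 uM final downward in 5-fold steps. DC50 comes from a logistic fit and Dmax is the maximal degradation.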
Background: Time-resolved FRET reads energy transfer from a long-lived donor to a nearby acceptor.

[3] abbreviates: maximum percentage of inhibition (degradation).

T1 sequence (P00533 25-1210 T790M/C797S/L858R): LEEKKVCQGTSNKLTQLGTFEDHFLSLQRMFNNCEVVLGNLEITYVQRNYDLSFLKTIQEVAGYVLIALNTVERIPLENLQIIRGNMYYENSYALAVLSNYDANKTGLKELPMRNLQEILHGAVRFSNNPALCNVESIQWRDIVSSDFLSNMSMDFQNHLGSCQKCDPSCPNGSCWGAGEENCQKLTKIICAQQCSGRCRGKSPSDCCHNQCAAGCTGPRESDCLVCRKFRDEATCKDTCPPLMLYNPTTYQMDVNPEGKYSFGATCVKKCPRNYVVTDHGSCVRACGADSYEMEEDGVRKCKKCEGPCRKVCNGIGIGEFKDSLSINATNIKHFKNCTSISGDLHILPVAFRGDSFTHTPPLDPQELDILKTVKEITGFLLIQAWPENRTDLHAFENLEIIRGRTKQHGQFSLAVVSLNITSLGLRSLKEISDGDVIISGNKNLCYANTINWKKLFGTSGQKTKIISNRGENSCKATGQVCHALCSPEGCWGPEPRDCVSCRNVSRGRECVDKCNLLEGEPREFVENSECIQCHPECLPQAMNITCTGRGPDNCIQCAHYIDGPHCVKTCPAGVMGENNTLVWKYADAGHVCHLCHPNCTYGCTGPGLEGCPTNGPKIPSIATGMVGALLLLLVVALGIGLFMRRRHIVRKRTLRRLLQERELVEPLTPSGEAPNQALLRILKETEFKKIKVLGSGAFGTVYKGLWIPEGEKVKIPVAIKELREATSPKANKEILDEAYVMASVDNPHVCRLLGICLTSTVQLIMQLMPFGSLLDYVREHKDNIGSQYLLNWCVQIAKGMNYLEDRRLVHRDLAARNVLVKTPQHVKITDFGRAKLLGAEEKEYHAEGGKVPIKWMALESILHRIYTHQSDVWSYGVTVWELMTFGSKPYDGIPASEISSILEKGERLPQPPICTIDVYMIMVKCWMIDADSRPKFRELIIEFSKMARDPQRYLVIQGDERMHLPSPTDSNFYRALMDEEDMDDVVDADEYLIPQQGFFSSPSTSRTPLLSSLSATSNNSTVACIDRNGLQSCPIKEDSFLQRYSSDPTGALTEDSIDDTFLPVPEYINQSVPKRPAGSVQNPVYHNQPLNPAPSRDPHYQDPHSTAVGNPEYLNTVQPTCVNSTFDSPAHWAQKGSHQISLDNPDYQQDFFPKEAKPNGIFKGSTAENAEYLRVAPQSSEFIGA

Regarding `CCc1cc(Nc2ncc(Br)c(Nc3ccc4cc(C)ncc4c3P(C)(C)=O)n2)c(OC)cc1N1CCC(N2CCN(C(=O)[C@@H]3CCN(c4cc(F)c([C@H]5CCC(=O)NC5=O)c(F)c4)C3)CC2)CC1` [Example 586, (R)-3-(4-((R)-3-(4-(1-(4-((5-bromo-4-((8-(dimethylphosphoryl)-3-methylisoquinolin-7-yl)amino)pyrimidin-2-yl)amino)-2-ethyl-5-methoxyphenyl)piperidin-4-yl)piperazine-1-carbonyl)pyrrolidin-1-yl)-2,6-difluorophenyl)piperidine-2,6-dione], in test [1], the DC50 amounted to 3.85 nM. For the same molecule, the Dmax in test [1] (setting [3]) is 94.1%. Besides, in test [2], the DC50 turned out to be 0.958 nM and the “Dmax (%) H1975 # 28 DTC” value is recorded as 84.73%.

Consider `CCOc1cc(N2CCC(N3CCN(CCc4cc(F)c([C@H]5CCC(=O)NC5=O)c(F)c4)CC3)CC2)c(CC)cc1Nc1ncc(Br)c(Nc2ccc3nc(CC)c(F)cc3c2P(C)(C)=O)n1` [Example 588, (R)-3-(4-(2-(4-(1-(4-((5-bromo-4-((5-(dimethylphosphoryl)-2-ethyl-3-fluoroquinolin-6-yl)amino)pyrimidin-2-yl)amino)-5-ethoxy-2-ethylphenyl)piperidin-4-yl)piperazin-1-yl)ethyl)-2,6-difluorophenyl)piperidine-2,6-dione], for which the figures for the DC50 in test [1] and in test [2] were 18.4 nM and 1.94 nM, respectively. Also, the Dmax in test [1] (setting [3]) worked out at 87.5%. In addition, the “Dmax (%) H1975 # 28 DTC” value in test [2] is listed as 84.46%.

Turning to `CCOc1cc(N2CCC(N3CCN(CC4CN(c5cc(F)c([C@H]6CCC(=O)NC6=O)c(F)c5)C4)CC3)CC2)c(CC)cc1Nc1ncc(Br)c(Nc2ccc3nc(CC)ncc3c2P(C)(C)=O)n1` [Example 590, (R)-3-(4-(3-((4-(1-(4-((5-bromo-4-((5-(dimethylphosphoryl)-2-ethylquinazolin-6-yl)amino)pyrimidin-2-yl)amino)-5-ethoxy-2-ethylphenyl)piperidin-4-yl)piperazin-1-yl)methyl)azetidin-1-yl)-2,6-difluorophenyl)piperidine-2,6-dione], the DC50 is 11.8 nM in test [1] and 0.697 nM in test [2]. In test [1] (setting [3]), the Dmax was 91.7%. The “Dmax (%) H1975 # 28 DTC” value in test [2] was 87.82%.

As to `CCOc1cc(N2CCC(N3CCN(CCc4cc(F)c([C@H]5CCC(=O)NC5=O)c(F)c4)CC3)CC2)c(CC)cc1Nc1nccc(Nc2cc(F)c3nc(CC)ccc3c2P(C)(C)=O)n1` [Example 591, (R)-3-(4-(2-(4-(1-(4-((4-((5-(dimethylphosphoryl)-2-ethyl-8-fluoroquinolin-6-yl)amino)pyrimidin-2-yl)amino)-5-ethoxy-2-ethylphenyl)piperidin-4-yl)piperazin-1-yl)ethyl)-2,6-difluorophenyl)piperidine-2,6-dione], in test [1], the DC50 worked out at 72.7 nM. The Dmax in test [1] (setting [3]) was 75%. Also, in test [2], the DC50 stood at 1.57 nM and the “Dmax (%) H1975 # 28 DTC” value is given as 75.79%.

As for `CCOc1cc(N2CCC(N3CCN(CCc4ccc(F)c5c4oc(=O)n5C4CCC(=O)NC4=O)CC3)CC2)c(CC)cc1Nc1ncc(Br)c(Nc2cc(F)c3nc(CC)ccc3c2P(C)(C)=O)n1` (stereo not drawn) [Example 592, 3-(7-(2-(4-(1-(4-((5-bromo-4-((5-(dimethylphosphoryl)-2-ethyl-8-fluoroquinolin-6-yl)amino)pyrimidin-2-yl)amino)-5-ethoxy-2-ethylphenyl)piperidin-4-yl)piperazin-1-yl)ethyl)-4-fluoro-2-oxobenzo[d]oxazol-3(2H)-yl)piperidine-2,6-dione], the DC50 in test [1] is 12.5 nM. For the same molecule, the Dmax in test [1] (setting [3]) was found to be 83.7%. Also, in test [2], the DC50 was 1.18 nM and the “Dmax (%) H1975 # 28 DTC” value was 82.2%.

As to `CCOc1cc(N2CCC(N3CCN(CCc4c(C)c(F)cc5c4oc(=O)n5C4CCC(=O)NC4=O)CC3)CC2)c(CC)cc1Nc1ncc(Br)c(Nc2cc(F)c3nc(CC)ccc3c2P(C)(C)=O)n1` (stereo not drawn) [Example 593, 3-(7-(2-(4-(1-(4-((5-bromo-4-((5-(dimethylphosphoryl)-2-ethyl-8-fluoroquinolin-6-yl)amino)pyrimidin-2-yl)amino)-5-ethoxy-2-ethylphenyl)piperidin-4-yl)piperazin-1-yl)ethyl)-5-fluoro-6-methyl-2-oxobenzo[d]oxazol-3(2H)-yl)piperidine-2,6-dione], in test [1], the DC50 came to 13.2 nM. Besides, in test [1] (setting [3]), the Dmax was found to be 82.6%. Also, in test [2], the DC50 amounted to 1.26 nM and the “Dmax (%) H1975 # 28 DTC” value is 76.9%.

As to `CCOc1cc(N2CCC(N3CCN(CCc4ccc(F)c5c4n(CC)c(=O)n5C4CCC(=O)NC4=O)CC3)CC2)c(CC)cc1Nc1ncc(Br)c(Nc2ccc3c(=O)n(CC)ncc3c2P(C)(C)=O)n1` (stereo not drawn) [Example 594, 3-(4-(2-(4-(1-(4-((5-bromo-4-((5-(dimethylphosphoryl)-2-ethyl-1-oxo-1,2-dihydrophthalazin-6-yl)amino)pyrimidin-2-yl)amino)-5-ethoxy-2-ethylphenyl)piperidin-4-yl)piperazin-1-yl)ethyl)-3-ethyl-7-fluoro-2-oxo-2,3-dihydro-1H-benzo[d]imidazol-1-yl)piperidine-2,6-dione], the results for the DC50 in test [1] and in test [2] were 17 nM and 0.818 nM, respectively. In test [1] (setting [3]), the Dmax is 85.5%. Besides, in test [2], the “Dmax (%) H1975 # 28 DTC” value turned out to be 85.75%.

As to `CCOc1cc(N2CCC(N3CCN(CCc4c(F)ccc5c4oc(=O)n5C4CCC(=O)NC4=O)CC3)CC2)c(CC)cc1Nc1ncc(Br)c(Nc2cc(F)c3nc(CC)ccc3c2P(C)(C)=O)n1` (stereo not drawn) [Example 595, 3-(7-(2-(4-(1-(4-((5-bromo-4-((5-(dimethylphosphoryl)-2-ethyl-8-fluoroquinolin-6-yl)amino)pyrimidin-2-yl)amino)-5-ethoxy-2-ethylphenyl)piperidin-4-yl)piperazin-1-yl)ethyl)-6-fluoro-2-oxobenzo[d]oxazol-3(2H)-yl)piperidine-2,6-dione], the DC50 in test [1] came to 16.1 nM. The Dmax in test [1] (setting [3]) was found to be 82%. Further, in test [2], the DC50 was determined as 1.02 nM and the “Dmax (%) H1975 # 28 DTC” value worked out at 72.7%.

For `CCOc1cc(N2CCC(N3CCN(CCc4c(F)ccc5c4n(CC)c(=O)n5C4CCC(=O)NC4=O)CC3)CC2)c(CC)cc1Nc1ncc(Br)c(Nc2ccc3c(=O)n(CC)ncc3c2P(C)(C)=O)n1` (stereo not drawn) [Example 596, 3-(4-(2-(4-(1-(4-((5-bromo-4-((5-(dimethylphosphoryl)-2-ethyl-1-oxo-1,2-dihydrophthalazin-6-yl)amino)pyrimidin-2-yl)amino)-5-ethoxy-2-ethylphenyl)piperidin-4-yl)piperazin-1-yl)ethyl)-3-ethyl-5-fluoro-2-oxo-2,3-dihydro-1H-benzo[d]imidazol-1-yl)piperidine-2,6-dione], the results for the DC50 in test [1] and in test [2] were 6.56 nM and 0.937 nM, respectively. In addition, the “Dmax (%) BaF3-LTC” value in test [1] (setting [3]) was determined as 91.42%. Further, the “Dmax (%) H1975 # 28 DTC” value in test [2] is 84.17%.

On to `CCOc1cc(N2CCC(N3CCN(CCCc4cc(OC)cc5c4oc(=O)n5C4CCC(=O)NC4=O)CC3)CC2)c(CC)cc1Nc1ncc(Br)c(Nc2ccc3nc(CC)ccc3c2P(C)(C)=O)n1` (stereo not drawn) [Example 597, 3-(7-(3-(4-(1-(4-((5-bromo-4-((5-(dimethylphosphoryl)-2-ethylquinolin-6-yl)amino)pyrimidin-2-yl)amino)-5-ethoxy-2-ethylphenyl)piperidin-4-yl)piperazin-1-yl)propyl)-5-methoxy-2-oxobenzo[d]oxazol-3(2H)-yl)piperidine-2,6-dione], for which the 50% degradation concentration (DC50) came to 28.2 nM in test [1] and 1.59 nM in test [2]. For the same molecule, the Dmax in test [1] (setting [3]) amounted to 90.1%. The “Dmax (%) H1975 # 28 DTC” value in test [2] was determined as 75.93%.

Turning to `CCOc1cc(N2CCC(N3CCN(CCCc4cc(OC)cc5c4oc(=O)n5C4CCC(=O)NC4=O)CC3)CC2)c(CC)cc1Nc1ncc(Br)c(Nc2ccc3c(=O)n(CC)ncc3c2P(C)(C)=O)n1` (stereo not drawn) [Example 598, 3-(7-(3-(4-(1-(4-((5-bromo-4-((5-(dimethylphosphoryl)-2-ethyl-1-oxo-1,2-dihydrophthalazin-6-yl)amino)pyrimidin-2-yl)amino)-5-ethoxy-2-ethylphenyl)piperidin-4-yl)piperazin-1-yl)propyl)-5-methoxy-2-oxobenzo[d]oxazol-3(2H)-yl)piperidine-2,6-dione], the DC50 in test [1] was found to be 18.8 nM; in test [2] it was 1.64 nM. For the same molecule, the Dmax in test [1] (setting [3]) amounted to 88.4%. In addition, in test [2], the “Dmax (%) H1975 # 28 DTC” value is listed as 81.26%.

`CCOc1cc(N2CCC(N3CCN(CCc4cc(Cl)cc5c4oc(=O)n5C4CCC(=O)NC4=O)CC3)CC2)c(CC)cc1Nc1ncc(Br)c(Nc2ccc3c(=O)n(CC)ncc3c2P(C)(C)=O)n1` (stereo not drawn) [Example 599, 3-(7-(2-(4-(1-(4-((5-bromo-4-((5-(dimethylphosphoryl)-2-ethyl-1-oxo-1,2-dihydrophthalazin-6-yl)amino)pyrimidin-2-yl)amino)-5-ethoxy-2-ethylphenyl)piperidin-4-yl)piperazin-1-yl)ethyl)-5-chloro-2-oxobenzo[d]oxazol-3(2H)-yl)piperidine-2,6-dione]: the DC50 came to 25 nM in test [1] and 1.91 nM in test [2]. For the same molecule, in test [1] (setting [3]), the Dmax came to 73.9%. Also, in test [2], the “Dmax (%) H1975 # 28 DTC” value came to 80.53%.
